Laboratory results: patent US9682058B2, “Method of treating viral infections by administration of ethyl mercury or thiol derivative thereof” (BEECH TREE LABS, INC., priority 2010, dated 2017)
Several values for one entry are separate records, joined by “and”; a condition that tells them apart may be missing. Equal entries are not always repeated. Where two headings read alike, the source gives them in different places.

Legend:
[1] = test system: herpes virus; settings: cited from earlier work
[2] = test system: herpes viruses; settings: cited from earlier work
[3] = test system: JC virus
[4] = test system: BK virus
[5] = Excerpt: A parent shared a drink with their child. Later that day the child asked their parent, who is an RN, to check the child's glands as they felt swollen and their throat hurt.
[6] = test system: HSV; settings: ARPE-19 cells, media of PBMCs incubated with 40 ng/ml thimerosal, overlaid prior to HSV infection
Method: PBMCs were incubated with 40 ng/ml thimerosal for a minimum of 6 hours and then were overlaid in ARPE-19 cells at various time points (12 hours, 4 hours, 2 hours, 1 hour, 30 minutes and 10 minutes) prior to HSV infection of the ARPE-19 cells. ARPE-19 cells were not continuously treated with thimerosal. ARPE-19 cells receiving thimerosal treatment with PBMC media was used as a control. The number of plaques formed on day 6 post-infection was used to measure the effectiveness of thimerosal in preventing HSV infections. The number of plaques was normalized to the number of plaques in the control.

[7] = test system: SP1
[8] = test system: Vero cells; settings: thimerosal doses tested (40 ng or 80 ng in 100 μl media)
Method: Vero cells were plated to a density of 70% confluency in 96-well dishes at a concentration of 75,000 cells/well). Cells were pretreated with either 40 ng or 80 ng thimerosal in 100 μl media for either 1 hour, 2 hours, 3 hours, 4 hours or 16 hours prior to infection.
After 1 hour at 37° C., virus was removed and cells were washed with unsupplemented MEM to remove unbound virus. The cells were then fed 100 μl/well complete media and stained for Tad (BK virus) or V-ag (JC virus) and scored via direct immunofluorescence.

[9] = test system: adenovirus; settings: person, one drop (0.05 cc) every 15 minutes for an hour, then every hour until bedtime
Method: A person with symptoms of an adenovirus infection took one drop of thimerosal (in a dose of 0.05 cc) every 15 minutes for an hour, and then one drop every hour until bedtime.

[10] = test system: TUBB4
[11] = test system: TUBB4Q
[12] = test system: common cold
Method: A fifty-three old person with classic symptoms of the common cold used one drop of thimerosal (in a dose of 0.05 cc) every hour for one day.
The child of the person in Example 4 was treated with thimerosal for the common cold on several occasions. The child experienced symptoms for 5-7 days without treatment, which was reduced to 1-3 days when treated with thimerosal.

[13] = test system: Vero cells
[14] = test system: porcine oocytes; settings: cited from earlier work
[15] = test system: laryngeal papillomas; settings: child, one drop (0.05 cc) every 15 minutes for an hour, then hourly; six times daily on days 2 and 3
Method: A child suffering from laryngeal papillomas spreading to the soft palate was treated with one drop of thimerosal (in a dose of 0.05 cc) every 15 minutes for an hour and then one drop every hour until bedtime. Thimerosal was administered in one drop every six times daily on days 2 and 3 and then as needed on subsequent days.

[16] = test system: HSV; settings: Vero cells, 40 ng/ml
Method: Green Monkey Kidney (Vero) cells were treated with thimerosal (40 ng/ml) at various time points (30 minutes, 1 hour, 2 hours, 3, hours, 4 hours, 6 hours and 8 hours) after HSV infection. The number of plaques formed on day 6 post-infection was used to measure the effectiveness of thimerosal in preventing HSV infections. The number of plaques was normalized to the number of plaques in the control.

[17] = test system: HSV; settings: Vero cells, 40 ng/ml; remark: listed apart in the source
Method: Green Monkey Kidney (Vero) cells were treated with thimerosal (40 ng/ml) at various time points (12 hours, 4 hours, 1 hour, and 30 minutes) prior to and at the time of HSV infection. The number of plaques formed on day 6 post-infection was used to measure the effectiveness of thimerosal in preventing HSV infections.

[18] = test system: POLR2A
[19] = test system: BK virus; remark: listed apart in the source
[20] = test system: LAT-SPNS1
[21] = test system: HSV; settings: ARPE-19 cells, 40 ng/ml, continuous treatment before HSV infection, depending on the treatment time point
[22] = test system: TUBA4A
[23] = test system: TUBE1
[24] = test system: molluscum contagiosum, a poxvirus infection; settings: several children, one drop (0.05 cc) every 15 minutes for an hour, then hourly; six times daily on days 2 and 3
[25] = treatment at the time of infection

SMILES: O=C(O)c1ccccc1SSc1ccccc1C(=O)O [dithiodibenzoic acid]
- antiviral activity in vivo [1]: do not provide antiviral activity in vivo
- anti-herpes virus activity in vitro [2]: indicated anti-herpes virus activity in vitro

SMILES: C[CH2][Hg][S]c1ccccc1C(=O)[O-].[Na+] [thimerosal]
- infectivity of the JC virus [3]: did not appear to inhibit infectivity
- infectivity of BK virus [4]: reduction of the infectivity of the virus
- symptoms (swollen glands, sore throat) ([5]; child, one drop (0.05 cc) at a two hour interval): symptoms were resolved
- development of symptoms after prophylactic dosing ([5]; parent, dosed as a prophylactic measure): did not develop any symptoms
- antiviral activity (plaques day 6) versus thimerosal alone [6]: stronger antiviral activity
- Fold changes (vs. Control) [7]: 1.95 and 2.04 and 2
- toxicity to cells [8]: did not appear to be toxic
- symptoms of an adenovirus infection [9]: significantly reduced and were gone the next day
- Fold changes (vs. Control) [10]: 2.13 and 2.12
- Fold changes (vs. Control) [11]: 1.85
- anti-herpes virus activity in vitro [2]: demonstrate activity against herpes viruses
- viral propagation ([2]; thimerosal mixed in a test tube with herpes virus, subsequently introduced into susceptible cells): viral propagation is not inhibited
- duration of common cold symptoms when treated ([12]; child, several occasions, 5-7 days without treatment): 1 to 3 days
- symptoms of the common cold ([12]; fifty-three old male, one drop (0.05 cc) every hour for one day): resolved by the next day
- toxicity to cells [13]: appeared to be toxic
- oocyte activation ([14]; 10 minute exposure to 200 μM thimerosal followed by 30 minute incubation in 8 mM DTT): induced complete activation of porcine oocytes
- oocyte cell-cycle effect ([14]; thimerosal treatment alone): arrests oocytes in metaphase
- resolution of the symptoms of laryngeal papillomas [15]: complete in five days
- number of plaques formed on day 6 post-infection ([16]; all other post-infection time points (30 minutes, 4, 6, 8 hours)): did not significantly reduce the number of plaques
- number of plaques formed on day 6 post-infection ([16]; post-infection treatment from 1-3 hours): significant reduction in the plaque numbers
- number of plaques formed on day 6 post-infection [16, 25]: did not change the number of plaques
- number of plaques formed on day 6 post-infection ([17]; prophylactic therapy (12 hours, 4 hours, 1 hour, 30 minutes prior to HSV infection)): significant decrease in the number of plaques
- number of plaques formed on day 6 post-infection ([17]; treatment 1 hour prior to HSV infection): highest reduction in the plaque number
- number of plaques formed on day 6 post-infection [17, 25]: did not reduce the number of plaques
- Fold changes (vs. Control) [18]: −1.84
- infectivity of BK virus [19]: reduction of the infectivity of the virus
- reduction of infectivity of BK virus [19]: approximately 30%
- Fold changes (vs. Control) [20]: 1.87
- inhibition of the activity of HSV (plaques, percent of control) [21]: up to 55%
- Fold changes (vs. Control) [22]: 1.96 and 2 and 1.95
- Fold changes (vs. Control) [23]: 1.95 and 2.03 and 1.98
- treatment outcome of molluscum contagiosum [24]: successfully treated

SMILES: O=C(O)c1ccccc1S [thiosalicylic acid]
- antiviral activity in vivo [1]: do not provide antiviral activity in vivo
